Assays:
[1] = tested on: JIMT-1 human breast cancer cell line; experiment: Cell viability assay (SRB) in JIMT-1; type: cell-based; settings: 72 hours after treatment, read-out: JIMT1 IC50
In short: (§1)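 JIMT-1 (3×10^3 cells/well) and HCT-116 (4×10^3 cells/well) cells were seeded and treated with inhibitors at several concentrations 24 h later. Viability was read by sulforhodamine B staining 72 h after treatment. JIMT-1 was grown in DMEM and HCT-116 in McCoy's 5A, both with FBS.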

[2] = tested on: HCT-116 human colon carcinoma cell line; experiment: Cell viability assay (SRB) in HCT-116; type: cell-based; settings: 72 hours after treatment, read-out: HCT116 IC50
In short: as §1

RKO xenograft = experiment: RKO colon cancer xenograft tumor growth in nude mice; type: in vivo, mouse; settings: female athymic nude mice
Description: Six-to-eight-week-old female athymic nude mice were housed with a temperature-controlled and 12-hour light/12-hour dark cycle environment. For in vivo colon cancer tumor growth, 1×10^6 RKO cells were prepared in 100 μL of DMEM and injected into right flank of female nude mice. Mouse weight and tumor volume were measured twice a week. Tumor volumes were calculated as length×width^2×0.5. Once the tumor volume had reached about 100 mm^3, xenografts were randomized into groups (5 mice per group). Animals were treated with vehicle and Compound 129b. The formulation for vehicle and Compound 129b was 50% PEG400 and 20% Cremophor RH40 final (50% of 40% Cremophor) in Acetate buffer, PH=4. The mouse were sacrificed after 4 weeks or if the tumors reached a predefined tumor volume cut-off of 2500 mm^3. […] For instance, at the highest does, a TGI of at least 80% was observed (FIG. 1). PGP-71

CT-26 xenografts = experiment: CT-26 mouse colon xenograft model; type: in vivo; settings: CT-26 xenograft, female Balb/c mice; 15, 25, 50 mpk QD, 5 mpk IV BIW, 5 mpk IP QD
Description: Compound 129b was also tested in CT-26 mouse colon xenograft models. For CT-26 xenografts 5×10^5 CT-26 cells in 100 μL was injected in the right flank of six-to-eight-week-old female Balb/c mice. When the tumor volume reached mean of ˜100 mm^3, mice were randomized in a group of 5 and treatment was initiated vehicle, 15 mpk QD, 25 mpk QD, 50 mpk QD, 5 mpk IV BIW, and 5 mpk IP QD of Compound 129b.

IC50 [1]: 3 nM | IC50 [2]: 34 nM
Structure (SMILES): COc1ccc(-c2cc(Nc3ccnc(N4C[C@@H](C)O[C@@H](C)C4)n3)[nH]n2)c(F)c1 [Compound 129b, 2-((2R,6S)-2,6-dimethylmorpholino)-N-(3-(2-fluoro-4-methoxyphenyl)-1H-pyrazol-5-yl)pyrimidin-4-amine]
tumor growth inhibition (in words) (RKO xenograft; 100 mg/kg PO QD/BID/TID): strong tumor growth inhibition | TGI (RKO xenograft; highest dose (100 mg/kg PO TID, 28 days)): at least 80% | tumor growth inhibition or regression (in words) (CT-26 xenografts): Strong and statistically significant tumor growth inhibition or regression
